Reference: the supplement of paper PMC10307832

Key:
Assay in all cases: relative viability (nuclei count vs DMSO), 5 days (fraction); higher = more cells survive
[1] = compound: Cn1c(=O)n(-c2ccc(C(C)(C)C#N)cc2)c2c3cc(-c4cnc5ccccc5c4)ccc3ncc21 [Dactolisib] + COc1cccc2cc(-c3nc([C@H]4CC[C@H](C(=O)O)CC4)n4ncnc(N)c34)[nH]c12 [OSI-027] (partner 0.5 µM)
Procedure, shortened: (§1)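 Values are medians from duplicate plates. Each reflects relative viability, defined as the nuclei count of treated wells over that of vehicle wells. Lung cancer cell lines in 1536-well plates were pin-tool dosed one day after seeding with one drug alone or with a fixed anchor-drug dose plus five library-drug doses (not always all listed) in √10 steps, then fixed, stained and imaged at 4× after 5 days.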

[2] = compound: Cn1c(=O)n(-c2ccc(C(C)(C)C#N)cc2)c2c3cc(-c4cnc5ccccc5c4)ccc3ncc21 [Dactolisib] + O=C(CCCCCCC(=O)Nc1ccccc1)NO [Vorinostat] (partner 1 µM)
Procedure, shortened: as §1

[3] = compound: Cn1c(=O)n(-c2ccc(C(C)(C)C#N)cc2)c2c3cc(-c4cnc5ccccc5c4)ccc3ncc21 [Dactolisib] + Cc1nc(NC(=O)N2CCC[C@H]2C(N)=O)sc1-c1ccnc(C(C)(C)C(F)(F)F)c1 [Alpelisib] (partner 2 µM)
Procedure, shortened: as §1

[4] = compound: Cn1c(=O)n(-c2ccc(C(C)(C)C#N)cc2)c2c3cc(-c4cnc5ccccc5c4)ccc3ncc21 [Dactolisib] + C[C@]1(O)C[C@@H](c2nc(-c3ccc4ccc(-c5ccccc5)nc4c3)c3c(N)nccn32)C1 [Linsitinib] (partner 1 µM)
Procedure, shortened: as §1

Cell Line | relative viability ([1]; first compound 0.002 µM) | relative viability ([1]; first compound 0.006325 µM) | relative viability ([1]; first compound 0.02 µM) | relative viability ([1]; first compound 0.06325 µM) | relative viability ([1]; first compound 0.2 µM) | relative viability ([2]; first compound 0.002 µM) | relative viability ([2]; first compound 0.006325 µM) | relative viability ([2]; first compound 0.02 µM) | relative viability ([2]; first compound 0.06325 µM) | relative viability ([2]; first compound 0.2 µM) | relative viability ([3]; first compound 0.002 µM) | relative viability ([3]; first compound 0.006325 µM) | relative viability ([3]; first compound 0.02 µM) | relative viability ([3]; first compound 0.06325 µM) | relative viability ([3]; first compound 0.2 µM) | relative viability ([4]; first compound 0.002 µM) | relative viability ([4]; first compound 0.006325 µM) | relative viability ([4]; first compound 0.02 µM) | relative viability ([4]; first compound 0.06325 µM) | relative viability ([4]; first compound 0.2 µM)
NCI-H1650 | 0.775 | 0.598 | 0.593 | 0.455 | 0.282 | 0.47 | 0.508 | 0.504 | 0.32 | 0.264 | – | – | – | – | – | – | – | – | – | –
BEN | 0.302 | 0.33 | 0.302 | 0.32 | 0.315 | 0.555 | 0.577 | 0.562 | 0.478 | 0.383 | 1.01 | 0.89 | 0.808 | 0.47 | 0.277 | 0.888 | 0.852 | 0.647 | 0.446 | 0.297
EMC-BAC-2 | 0.395 | 0.439 | 0.405 | 0.346 | 0.296 | 0.492 | 0.442 | 0.353 | 0.266 | 0.219 | 0.802 | 0.708 | 0.69 | 0.542 | 0.374 | 0.872 | 0.806 | 0.798 | 0.591 | 0.475
LU99A | 0.294 | 0.327 | 0.332 | 0.314 | 0.276 | 0.417 | 0.368 | 0.407 | 0.246 | 0.162 | 0.483 | 0.333 | 0.273 | 0.242 | 0.192 | 0.572 | 0.468 | 0.307 | 0.218 | 0.223
ABC-1 | 0.494 | 0.519 | 0.569 | 0.43 | 0.349 | 1.19 | 1.34 | 0.94 | 0.824 | 0.529 | 1.2 | 1.01 | 0.816 | 0.571 | 0.431 | 0.948 | 0.614 | 0.694 | 0.363 | 0.326
NCI-H2170 | 0.763 | 0.639 | 0.689 | 0.543 | 0.37 | 0.821 | 0.815 | 0.754 | 0.613 | 0.259 | 0.787 | 0.754 | 0.706 | 0.479 | 0.26 | – | – | – | – | –
NCI-H1299 | – | – | – | – | – | – | – | – | – | – | 1.07 | 1.08 | 1.1 | 0.829 | 0.905 | 0.979 | 0.929 | 1.01 | 0.573 | 0.608
EBC-1 | – | – | – | – | – | – | – | – | – | – | 0.832 | 0.742 | 0.58 | 0.243 | 0.207 | 0.974 | 0.756 | 0.863 | 0.202 | 0.177
NCI-H2347 | 0.407 | 0.52 | 0.635 | 0.41 | 0.332 | 0.557 | 0.55 | 0.585 | 0.364 | 0.378 | 1.2 | 1.09 | 0.927 | 0.689 | 0.399 | 1.29 | 0.47 | 0.893 | 0.68 | 0.385
NCI-H1993 | 0.596 | 0.496 | 0.615 | 0.469 | 0.589 | 0.849 | 0.54 | 0.537 | 0.481 | 0.284 | 0.711 | 0.561 | 0.754 | 0.694 | 0.684 | 0.674 | 0.686 | 0.734 | 0.645 | 0.73
NCI-H322M | 0.542 | 0.56 | 0.562 | 0.535 | 0.515 | 0.941 | 0.862 | 0.734 | 0.599 | 0.609 | 0.899 | 0.839 | 0.8 | 0.609 | 0.511 | 0.939 | 0.826 | 0.84 | 0.586 | 0.442
NCI-H838 | 0.424 | 0.477 | 0.317 | 0.252 | 0.274 | 0.746 | 0.575 | 0.497 | 0.36 | 0.306 | 0.926 | 0.704 | 0.699 | 0.287 | 0.283 | 0.915 | 0.444 | 0.652 | 0.226 | 0.22
NCI-H1648 | 0.246 | 0.286 | 0.279 | 0.235 | 0.263 | 0.506 | 0.421 | 0.654 | 0.435 | 0.203 | – | – | – | – | – | – | – | – | – | –
NCI-H1792 | 0.742 | 0.72 | 0.654 | 0.391 | 0.266 | – | – | – | – | – | 0.783 | 0.671 | 0.549 | 0.165 | 0.125 | 0.57 | 0.483 | 0.382 | 0.112 | 0.0865
ChaGo-K-1 | 0.538 | 0.528 | 0.571 | 0.537 | 0.609 | 0.724 | 0.821 | 0.719 | 0.623 | 0.757 | – | – | – | – | – | – | – | – | – | –
A549 | – | – | – | – | – | – | – | – | – | – | 0.966 | 0.715 | 0.614 | 0.146 | 0.083 | 0.578 | 0.58 | 0.465 | 0.194 | 0.125
NCI-H1563 | 0.746 | 0.772 | 0.685 | 0.648 | 0.598 | – | – | – | – | – | 0.851 | 0.86 | 0.706 | 0.605 | 0.588 | 1.25 | 1.11 | 1.02 | 0.62 | 0.654
NCI-H522 | 0.719 | 0.728 | 0.881 | 0.671 | 0.539 | 0.861 | 0.833 | 0.79 | 0.822 | 0.657 | – | – | – | – | – | – | – | – | – | –
IA-LM | – | – | – | – | – | 1 | 0.903 | 0.817 | 0.426 | 0.267 | 0.636 | 0.663 | 0.793 | 0.179 | 0.186 | 0.681 | 0.613 | 0.6 | 0.124 | 0.206
NCI-H1703 | – | – | – | – | – | – | – | – | – | – | 0.205 | 0.329 | 0.34 | 0.267 | 0.216 | – | 0.637 | 0.891 | 0.417 | 0.468
SW 900 | 0.495 | 0.419 | 0.474 | 0.244 | 0.213 | 0.478 | 0.443 | 0.434 | 0.216 | 0.24 | – | – | – | – | – | – | – | – | – | –
